According to paper PMC10068823 (European Journal of Medicinal Chemistry, 2023):

What was measured:
[1] = tested on: MERS-CoV
[2] = tested on: HCoV 229E; assay: organism not typed; settings: BEAS-2B, read-out: EC50 HCoV229E
[3] = tested on: HCoV 229E; settings: BEAS2B cell
[4] = tested on: SARS-CoV-2
[5] = target: T1, SARS-CoV-2 3CL^pro (Severe acute respiratory syndrome coronavirus 2, UniProt P0DTD1); type: biochemical
[6] = target: T1, SARS-CoV-2 3CL^pro; type: biochemical; remark: listed apart in the source
[7] = tested on: Calu-3 cells

| Compound | SI (CC50/EC50) MERS [1] | EC50 [2] | SI (CC50/EC50) HCoV229E [3] | improvement in antiviral potency when co-dosed with CP-100356 [4] | SARS-CoV-2 3CL^pro enzyme inhibition at fixed concentration [5] | other results |
| --- | --- | --- | --- | --- | --- | --- |
| CC(C)[C@H](NC(=O)OC(C)(C)C)C(=O)N1C[C@H](OC(C)(C)C)C[C@H]1C(=O)N[C@H](C=O)C[C@@H]1CCNC1=O [Compound 11, tert-Butyl ((S)-1-((2S,4R)-4-(tert-butoxy)-2-(((S)-1-oxo-3-((S)-2-oxopyrrolidin-3-yl)propan-2-yl)carbamoyl)pyrrolidin-1-yl)-3-methyl-1-oxobutan-2-yl)carbamate] | 33.56 ± 6.8 (>3) | > 48.2 µM | < 10 | more than 3 fold | – | – |
| CC(C)[C@H](NC(=O)OC(C)(C)C)C(=O)N1CCC[C@H]1C(=O)N[C@H](CO)C[C@@H]1CCNC1=O [Compound 27g, tert-Butyl ((S)-1-((S)-2-(((S)-1-hydroxy-3-((S)-2-oxopyrrolidin-3-yl)propan-2-yl)carbamoyl)pyrrolidin-1-yl)-3-methyl-1-oxobutan-2-yl)carbamate] | – | – | – | – | inactive | – |
| C[C@H](OC(C)(C)C)[C@H](NC(=O)OC(C)(C)C)C(=O)N1CCC[C@H]1C(=O)N[C@H](C=O)C[C@@H]1CCNC1=O [Compound 14, tert-Butyl ((2S,3S)-3-(tert-butoxy)-1-oxo-1-((S)-2-(((S)-1-oxo-3-((S)-2-oxopyrrolidin-3-yl)propan-2-yl)carbamoyl)pyrrolidin-1-yl)butan-2-yl)carbamate] | – | – | – | more than 3 fold | – | – |
| CO[C@H]1C[C@@H](C(=O)N[C@H](C=O)C[C@@H]2CCNC2=O)N(C(=O)[C@@H](NC(=O)OC(C)(C)C)C(C)C)C1 [Compound 8, tert-Butyl ((S)-1-((2S,4S)-4-methoxy-2-(((S)-1-oxo-3-((S)-2-oxopyrrolidin-3-yl)propan-2-yl)carbamoyl)pyrrolidin-1-yl)-3-methyl-1-oxobutan-2-yl)carbamate] | 0.58 ± 0.34 (>172) | > 3.6 µM | < 10 | – | – | increase in potency on MERS respect to SARS-CoV-2 in the CPE cellular assay [1]: 15 fold |
| CC(C)C[C@H](NC(=O)[C@@H](NC(=O)OC(C)(C)C)C(C)C)C(=O)N[C@H](C=O)C[C@@H]1CCNC1=O [Compound 5, tert-Butyl ((S)-3-methyl-1-(((S)-4-methyl-1-oxo-1-(((S)-1-oxo-3-((S)-2-oxopyrrolidin-3-yl)propan-2-yl)amino)pentan-2-yl)amino)-1-oxobutan-2-yl)carbamate] | 1.58 ± 0.91 (>63) | – | > 30.1 | more than 3 fold | – | – |
| COC(=O)[C@H](C[C@@H]1CCNC1=O)NC(=O)[C@@H]1CCCN1C(=O)[C@@H](NC(=O)OC(C)(C)C)C(C)C [Compound 25g, Methyl (S)-2-((S)-1-((tert-butoxycarbonyl)-L-valyl)pyrrolidine-2-carboxamido)-3-((S)-2-oxopyrrolidin-3-yl)propanoate] | – | – | – | – | inactive | – |
| CC(C)[C@H](NC(=O)OC(C)(C)C)C(=O)N1C[C@@H]2CCC[C@@H]2[C@H]1C(=O)N[C@H](C=O)C[C@@H]1CCNC1=O [Compound 12, tert-Butyl ((S)-3-methyl-1-oxo-1-((1S,3aR,6aS)-1-(((S)-1-oxo-3-((S)-2-oxopyrrolidin-3-yl)propan-2-yl)carbamoyl)hexahydrocyclopenta[c]pyrrol-2(1H)-yl)butan-2-yl)carbamate] | – | – | – | – | – | mechanism of action from enzymatic progression curve [6]: slow covalent binding inhibitor; cytotoxicity in Calu-3 cells [7]: without sign of cytotoxicity; lower activity against MERS compared to SARS-CoV-2 [1]: 20 fold |
| CC(C)[C@H](NC(=O)OC(C)(C)C)C(=O)N1CCC[C@H]1C(=O)N[C@@H](C[C@@H]1CCNC1=O)C(=O)O [Compound 26, (S)-2-((S)-1-((tert-butoxycarbonyl)-L-valyl)pyrrolidine-2-carboxamido)-3-((S)-2-oxopyrrolidin-3-yl)propanoic acid] | – | – | – | – | inactive | – |
| CC(C)[C@H](NC(=O)OC(C)(C)C)C(=O)N1CCC[C@H]1C(=O)N[C@H](C=O)C[C@@H]1CCNC1=O [Compound 6, tert-Butyl ((S)-3-methyl-1-oxo-1-((S)-2-(((S)-1-oxo-3-((S)-2-oxopyrrolidin-3-yl)propan-2-yl)carbamoyl)pyrrolidin-1-yl)butan-2-yl)carbamate] | 4.56 ± 1.39 (>22) | > 17.9 µM | < 10 | – | – | – |
| CC(C)[C@H](NC(=O)OC(C)(C)C)C(=O)N1CCCC[C@H]1C(=O)N[C@H](C=O)C[C@@H]1CCNC1=O [Compound 13, tert-Butyl ((S)-3-methyl-1-oxo-1-((S)-2-(((S)-1-oxo-3-((S)-2-oxopyrrolidin-3-yl)propan-2-yl)carbamoyl)piperidin-1-yl)butan-2-yl)carbamate] | – | – | – | more than 3 fold | – | – |
